From patent US12201626B2, “Bifunctional compositions for the treatment of cancer” (ARMACEUTICA, INC., priority 2018, dated 2025)

Key:
Calf Thymus DNA = test: Circular dichroism spectroscopy; type: binding; conditions: PND/DNA molar ratios 0.03-0.3; 30 min and 20 h
Procedure: Circular dichroism (CD) spectra measurements were taken in a JASCO-1100 spectropolarimeter equipped with a Xenon lamp (JASCO, Easton, MD). CT DNA and buffers were purchased from Sigma Aldrich. A CT DNA stock solution was prepared in Tris/HCl buffer (5 mM Tris/HCl, 50 mM NaCl, pH=7.39) and its concentration (4.325 mM) was spectrophotometrically determined using molar extinction coefficient 6600 M−1 cm−1 at 260 nm. A 150 μM dilution in Tris/HCl buffer was prepared and used for the experiments. A 2.0 mM stock solution of PND was freshly prepared in MQ water prior to use. The appropriate volume of this solution was added to 3 ml working solutions of 150 μM CT DNA to achieve molar ratios of 0.03, 0.06, 0.2 and 0.3 PND/DNA. Samples were prepared in triplicate and incubated for 30 minutes and 20 hours. All CD spectra of DNA and DNA/PND were recorded at 25° C. over the range 205-380 nm and finally corrected with a blank and noise reduction. The final data is the average of three experiments and it is expressed in millidegrees (mdegs).

[1] = tested on: malignancy that was metastatic or unresectable; test: Open-label study of oral PND in terminally-ill canine cancer patients; type: in vivo
Excerpt: Due to ethical concerns of treating terminally-ill dogs, there was no placebo group.
The secondary outcomes were: anti-tumor activity, malignancy-associated symptom relief, and the safety and tolerability of PND.
Case 1, Mast cell carcinoma: Dog (Golden Retriever), female, 6 years old, 28.7 kg. Cancer was confirmed by histopathology report. In mid-May 2019 the administration of oral PND to the dog began after which patient received no other cancer medication. Veterinarian expected survival length of between 4 and 6 months at the time of study entry. Patient received 23 mg/kg/day PND (325 mg in the morning and 325 mg in the evening).
Case 2, Osteosarcoma: Dog (Saint Bernard), male, 5 years old, 49.7 kg. On 17 May 2019 the administration of oral PND began after which the patient received no other cancer medication. The veterinarian expected a survival length of between 4 and 6 months at the time of study entry. Patient received 20 mg/kg/day PND (325 mg in the morning and 650 mg in the evening).
Case 3, spindle cell sarcoma: Dog (Border Collie), male, 9 years old, 28.5 kg. In 2014 the dog was diagnosed with a low-grade spindle cell sarcoma, and was due to be euthanized on 11 Feb. 2019, with a life expectancy of 1-2 weeks. Instead, the veterinarian began the administration of oral PND on 11 Feb. 2019 after which patient received no other cancer medication. Patient received 15 mg/kg/day PND (215 mg in the morning and 215 mg in the evening).
Case 4, non-Hodgkin lymphoma: Dog (Boxer), female, 27 kg, 11 years old. Cancer was confirmed by biopsy report. In December 2018 the administration of oral PND to the dog began after which patient received no other cancer medication. Patient received 15 mg/kg/day PND (210 mg in the morning and 210 mg in the evening). However, the administration of PND stopped in February 2019 (due to shipping problems from the USA to Canada) and never resumed.
Case 5, mast cell tumor: Dog, male, 27.9 kg. Cancer was confirmed by histopathology report. A tumor was surgically excised from tongue, and there was no clean border. In December 2018 the administration of oral PND began after which the patient received no other cancer medication. Patient received 15 mg/kg/day PND (210 mg in the morning and 210 mg in the evening).

MDA-MB-231 cells = test: Cell cycle profile and DNA fragmentation, DAPI flow cytometry; type: cell-based, human; conditions: 72 h
Procedure: (§1) Asynchronous cultures in the exponential growth phase of MDA-MB-231 and HL-60 cells in 24-well plates were treated with several doses of PND. After 72 h of incubation, cells were centrifuged and treated as in the previous section, fixed, permeabilized and stained with a DNA intercalating fluorophore, 4,6-Diamidino-2-phenylindole (DAPI); those three steps were accomplished by adding to the cells 200 μl of a single nuclear isolation medium (NIM)-DAPI solution (Beckman Coulter). The cell suspension was then incubated for an additional 3 min at room temperature in the dark. The controls included in the series of experiments were similar to those described for the above experiments. Approximately, 20,000 events/cells were collected per sample by using a flow cytometer equipped with a solid state 405 nm laser (Gallios; Beckman Coulter). The acquisition and distribution of cell subpopulations within each cell cycle facets were accomplished by utilizing Kaluza flow cytometry software (Beckman Coulter). Additionally, doublets were effectively eliminated by including a single cells gate in the acquisition cell cycle protocol.

HL-60 cells = test: as above; type: cell-based, human; conditions: 72 h
Procedure: as §1

[2] = concentration-dependent, P<0.0005

SMILES: COC1=CC=C2Nc3cc(Cl)ccc3C(N=C3C=C(CN4CCCC4)C(=O)C(CN4CCCC4)=C3)=C2N1 [PND, 4-[(7-chloro-2-methoxy-1,5-dihydrobenzo[b][1,5]naphthyridin-10-yl)imino]-2,6-bis(pyrrolidin-1-ylmethyl)cyclohexa-2,5-dien-1-one]
- change of CD spectra of CT DNA (Calf Thymus DNA): increase the intensity of both the negative and the positive bands
- study-drug related adverse events ([1]; Case 1, mast cell carcinoma, 23 mg/kg/day oral): no reports of any study-drug related adverse events
- survival status ([1]; Case 1, as of June 2019, start mid-May 2019): still alive
- possible study-drug related adverse events ([1]; Case 2, osteosarcoma, 20 mg/kg/day oral, resolved with diphenhydramine): drooling, facial swelling, and vomiting
- survival status ([1]; Case 2, at June 2019, start 17 May 2019): still alive
- study-drug related adverse events ([1]; Case 3, spindle cell sarcoma, 15 mg/kg/day oral): no reports of any study-drug related adverse events except initial vomiting
- survival lengthened by ([1]; Case 3, life expectancy 1-2 weeks at entry): 3 months
- reduction of volume of each tumor at follow-up ([1]; Case 3, three tumors): approximately 20%
- survival lengthened by ([1]; Case 4): 2.5 months
- study-drug related adverse events ([1]; Case 4, non-Hodgkin lymphoma, 15 mg/kg/day oral): no reports of any study-drug related adverse events
- tumor shrinkage ([1]; Case 4, neck tumor, by March 2019): 70%
- tumor volume at follow-up ([1]; Case 5, mast cell tumor, 15 mg/kg/day oral, 2 cm×1 cm versus 2 cm×1 cm): remained the same volume
- survival status ([1]; Case 5, as of June 2019, start December 2018): still alive
- G0/G1 cell subpopulation (MDA-MB-231 cells): significant decrease
- DNA fragmentation (sub-G0/G1 subpopulation) (MDA-MB-231 cells; [2]): significant increase
- S and G2/M subpopulations (MDA-MB-231 cells; vs PBS and untreated controls): decreased
- decrease of G0/G1 cell subpopulation (HL-60 cells): not observed
- DNA fragmentation (sub-G0/G1 subpopulation) (HL-60 cells; [2]): significant increase
- S and G2/M subpopulations (HL-60 cells; vs PBS and untreated controls): decreased
